# Results reported in patent US8338441B2, “Inhibitors of human immunodeficiency virus replication” (priority 2009, dated 2012).
# System: HIV-1 NL4.3 strain
# Test: C8166 HIV-1 Luciferase Assay (EC50)
# Assay type: cell-based
# Settings: Human immunodeficiency virus 1, C8166, 72 h, read-out: Antiviral potency EC50
# Text: C8166 HIV-1 Luciferase Assay (EC50)
# C8166 cells are derived from a human T-lymphotrophic virus type 1 immortalized but nonexpressing line of cord blood lymphocytes (obtained from J. Sullivan and originally produced in the laboratory of R. Gallo, Virology 1983; 129: 51-64) and are highly permissive to HIV-1 infection. The pGL3 Basic LTR/TAR plasmid is made by introducing the HIV-1 HxB2 LTR sequence from nucleotide −138 to +80 (Sca1-HindIII) upstream of the luciferase gene in the pGL3 Basic Vector (a promoterless luciferase expression vector from Promega catalogue # E1751) with the gene for blasticidine resistance cloned in. The reporter cells are made by electroporating C8166 cells with pGL3 Basic LTR/TAR and selecting positive clones with blasticidine. Clone C8166-LTRIuc #A8-F5-G7 is selected by 3 consecutive rounds of limiting dilution under blasticidine selection. Cultures are maintained in complete media (consisting of: Roswell Park Memorial Institute medium (RPMI) 1640+10% FBS+10^−5 M β-mercaptoethanol+10 μg/ml gentamycin) with 5 μg/ml blasticidine, however, blasticidine selection is removed from the cells before performing the viral replication assay.
# Luciferase Assay Protocol
# Serial dilutions of HIV-1 inhibitor compounds are prepared in complete media from 10 mM DMSO stock solutions. Eleven serial dilutions of 2.5× are made at 8× desired final concentration in a 1 mL deep well titer plate (96 wells). The 12th well contains complete media with no inhibitor and serves as the positive control. All samples contain the same concentration of DMSO (≦0.1% DMSO). A 25 μL aliquot of inhibitor is added, to triplicate wells, of a 96 well tissue culture treated clear view black microtiter plate (Corning Costar catalogue # 3904). The total volume per well is 200 μL of media containing cells and inhibitor. The last row is reserved for uninfected C8166 LTRluc cells to serve as the background blank control and the first row is media alone.
# C8166 LTRluc cells are counted and placed in a minimal volume of complete RPMI 1640 in a tissue culture flask (ex. 30×10^6 cells in 10 mL media/25 cm^2 flask). Cells are infected with HIV-1 or virus with variant integrase generated as described below at a […] (moi) of 0.005. Cells are incubated for 1.5 hours at 37° C. on a rotating rack in a 5% CO2 incubator and re-suspended in complete RPMI to give a final concentration of 25,000-cells/175 μL. 175 μL of cell mix is added to wells of a 96 well microtiter plate containing 25 μL 8× inhibitors. 25,000 uninfected C8166-LTRluc cells/well in 200 μL complete RPMI are added to the last row for background control. Cells are incubated at 37° C. in 5% CO2 incubator for 3 days.
# 50 μL Steady Glo (luciferase substrate T1/2=5 hours Promega catalogue # E2520) is added to each well of the 96 well plate. The relative light units (RLU) of luciferase is determined using the LUMIstar Galaxy luminometer (BMG LabTechnologies). Plates are read from the bottom for 2 seconds per well with a gain of 240.
# The level of inhibition (% inhibition) of each well containing inhibitor is calculated as follows: […]
# The calculated % inhibition values are used to determine EC50, slope factor (n) and maximum inhibition (Imax) by the non-linear regression routine NLIN procedure of SAS using the following equation: […]
row,SMILES,EC50 [nM]
1,Cc1nc(-c2nc3ccccc3n2C2CC2)c(C)c(-c2ccc(Cl)cc2)c1[C@H](OC(C)(C)C)C(=O)O [compound 1450],7.7
2,Cc1nc(C(=O)NC2CCC(C)(C)CC2)c(C)c(-c2ccc(Cl)cc2F)c1[C@H](OC(C)(C)C)C(=O)O [compound 1451],1.7
3,Cc1nc(C(=O)NC2CCC3(CC2)CC3)c(C)c(-c2ccc(Cl)cc2F)c1[C@H](OC(C)(C)C)C(=O)O [compound 1452],5.7
4,COc1cc(C(=O)Nc2nc(C)c([C@H](OC(C)(C)C)C(=O)O)c(-c3ccc(Cl)cc3F)c2C)nc2ccccc12 [compound 1453],2.1
5,Cc1nc(C(=O)N[C@H]2CC[C@H](C)CC2)c(C)c(-c2cccc(F)c2Cl)c1[C@H](OC(C)(C)C)C(=O)O [compound 1454],3.7
6,Cc1nc(C(=O)N[C@H]2CC[C@H](C)CC2)c(C)c(-c2ccccc2Cl)c1[C@H](OC(C)(C)C)C(=O)O [compound 1455],4
7,Cc1nc(C(=O)N[C@H]2CC[C@H](C)CC2)c(C)c(-c2ccc(Br)cc2)c1[C@H](OC(C)(C)C)C(=O)O [compound 1456],4.2
8,Cc1nc(C(=O)NC2CCC(C)(C)CC2)c(C)c(-c2ccc(Br)cc2)c1[C@H](OC(C)(C)C)C(=O)O [compound 1457],4
9,Cc1nc(C(=O)NC2CCC3(CC2)CC3)c(C)c(-c2ccc(Br)cc2)c1[C@H](OC(C)(C)C)C(=O)O [compound 1458],6.9
10,Cc1nc(C(=O)N[C@H]2CC[C@H](C)CC2)c(C)c(-c2ccc3c(c2)SCCO3)c1[C@H](OC(C)(C)C)C(=O)O [compound 1459],4
11,COc1cc(C(=O)Nc2nc(C)c([C@H](OC(C)(C)C)C(=O)O)c(-c3ccc(Cl)cc3)c2C)nc2ccccc12 [compound 1461],2.5
12,COc1cc(Cl)ccc1C(=O)Nc1nc(C)c([C@H](OC(C)(C)C)C(=O)O)c(-c2ccc(Cl)cc2)c1C [compound 1462],1.2
13,Cc1nc(NC(=O)c2oc3ccccc3c2C)c(C)c(-c2ccc(Cl)cc2)c1[C@H](OC(C)(C)C)C(=O)O [compound 1463],2.1
14,Cc1nc(NC(=O)[C@H]2CC[C@H](C)CC2)c(C)c(-c2ccc(Cl)cc2)c1[C@H](OC(C)(C)C)C(=O)O [compound 1464],6.2
15,Cc1ccc(C(F)(F)F)c(C(=O)Nc2nc(C)c([C@H](OC(C)(C)C)C(=O)O)c(-c3ccc(Cl)cc3)c2C)c1 [compound 1465],11
16,Cc1nc(NC(=O)c2ccc(Cl)c(F)c2)c(C)c(-c2ccc(Cl)cc2)c1[C@H](OC(C)(C)C)C(=O)O [compound 1466],4.9
17,COc1nc(C)ccc1C(=O)Nc1nc(C)c([C@H](OC(C)(C)C)C(=O)O)c(-c2ccc(Cl)cc2)c1C [compound 1467],4.3
18,Cc1nc(-c2nc3ccc(Cl)cn3c2C)c(C)c(-c2ccc(Cl)cc2)c1[C@H](OC(C)(C)C)C(=O)O [compound 1469],0.61
19,Cc1nc(C(=O)N2Cc3ccccc3C2)c(C)c(-c2ccc(Cl)cc2)c1[C@H](OC(C)(C)C)C(=O)O [compound 1471],2.4
20,COCc1nc(-c2ccc(C)c(C)c2)c(C)c(-c2ccc(Cl)cc2)c1[C@H](OC(C)(C)C)C(=O)O [compound 2003],17
21,Cc1noc(C)c1-c1ccc(-c2nc(C)c([C@H](OC(C)(C)C)C(=O)O)c(-c3ccc(Cl)cc3)c2C#N)cc1 [compound 2005],19
22,CCC(C)(C)O[C@H](C(=O)O)c1c(C)nc(C(=O)N[C@H]2CC[C@H](C)CC2)c(C)c1-c1ccc(Cl)cc1 [compound 3005],9.3
23,Cc1nc(C(=O)N[C@H]2CC[C@H](C)CC2)c(C)c(-c2ccc(Cl)cc2)c1[C@H](OC1(C)CCC1)C(=O)O [compound 3009],24
24,Cc1c(-c2ccc3c(c2)CCCO3)c([C@H](OC(C)(C)C)C(=O)O)c(C)n2cc(CC(C)(C)C)nc12 [compound 4002],73
25,COC(=O)c1cnn2c(C)c([C@H](OC(C)(C)C)C(=O)O)c(-c3ccc4c(c3)CCCO4)c(C)c12 [compound 6001],89
